Experimental data taken from the NIST ThermoML archive (doi:10.1016/j.jct.2018.11.014).

Experiment: molar heat capacity at constant pressure
Settings: 101.33 kPa, Crystal, Vacuum adiabatic calorimetry

O=C(CO)[C@H](O)[C@H](O)[C@H](O)CO [D-psicose]
Settings | molar heat capacity at constant pressure [J/K/mol]
10 K | 1.06
13.99 K | 3.375
14.02 K | 3.439
14.28 K | 3.64
14.4 K | 3.754
14.66 K | 3.847
14.86 K | 4.085
15.13 K | 4.198
15.37 K | 4.483
15.64 K | 4.671
15.88 K | 4.798
16.15 K | 5.026
16.39 K | 5.238
16.66 K | 5.478
16.87 K | 5.647
17.18 K | 5.894
17.36 K | 6.237
17.71 K | 6.348
17.89 K | 6.508
18.23 K | 6.844
18.41 K | 6.995
18.75 K | 7.275
18.93 K | 7.521
19.28 K | 7.752
19.46 K | 7.915
19.8 K | 8.239
19.98 K | 8.416
20 K | 8.42
20.3 K | 8.666
20.5 K | 8.908
20.83 K | 9.202
21.03 K | 9.391
21.37 K | 9.657
21.57 K | 9.861
21.92 K | 10.24
22.13 K | 10.42
22.49 K | 10.72
22.7 K | 10.96
23.05 K | 11.3
23.26 K | 11.48
23.62 K | 11.82
23.81 K | 12.26
24.15 K | 12.34
24.36 K | 12.54
24.65 K | 12.88
24.9 K | 13.06
25.16 K | 13.34
25.45 K | 13.61
25.69 K | 13.83
26.02 K | 14.15
26.24 K | 14.43
26.59 K | 14.76
26.81 K | 14.99
27.15 K | 15.34
27.39 K | 15.49
27.7 K | 15.88
27.98 K | 16.13
28.26 K | 16.42
28.56 K | 16.7
28.82 K | 16.95
29.15 K | 17.31
29.37 K | 17.41
29.75 K | 17.78
29.95 K | 18.06
30 K | 18.07
30.36 K | 18.41
30.55 K | 18.62
31.01 K | 19.02
31.16 K | 19.16
31.66 K | 19.69
31.8 K | 19.88
32.32 K | 20.31
32.46 K | 20.43
32.98 K | 20.91
33.13 K | 21.09
33.66 K | 21.61
33.8 K | 21.78
34.35 K | 22.21
34.48 K | 22.3
35.05 K | 22.92
35.17 K | 22.97
35.76 K | 23.59
35.88 K | 23.74
36.48 K | 24.27
36.63 K | 24.38
37.21 K | 24.86
37.36 K | 25.09
37.96 K | 25.64
38.08 K | 25.78
38.67 K | 26.21
38.81 K | 26.52
39.35 K | 26.89
39.58 K | 27.16
40 K | 27.53
40.05 K | 27.63
40.43 K | 27.95
40.77 K | 28.11
41.28 K | 28.77
41.49 K | 28.95
42.02 K | 29.4
42.23 K | 29.59
42.78 K | 30.13
42.98 K | 30.25
43.57 K | 30.79
43.74 K | 30.97
44.37 K | 31.59
44.52 K | 31.66
45.16 K | 32.25
45.3 K | 32.35
45.96 K | 33.05
46.09 K | 33.04
46.74 K | 33.72
46.88 K | 33.8
47.53 K | 34.42
47.68 K | 34.54
48.33 K | 35.15
48.49 K | 35.21
49.13 K | 35.86
49.31 K | 35.98
49.94 K | 36.62
50 K | 36.64
50.14 K | 36.77
50.75 K | 37.33
51.57 K | 38.05
52.37 K | 38.74
53.17 K | 39.44
53.96 K | 40.14
54.75 K | 40.85
55.53 K | 41.56
56.33 K | 42.23
57.14 K | 42.92
57.94 K | 43.52
58.76 K | 44.3
